Assay results as given in ChEMBL document CHEMBL1201862, “PubChem BioAssay data set” (2004).
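Compound exposure: 48 hours, 5 concentrations, 96-well plates. GI50: concentration for 50% inhibition of growth.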 Active and inactive are the calls of the source. Cut-off read from the data, not from the text of the source: active = GI50 up to about 1.1 µM and inactive = higher.

What was measured:
Experiment in all cases: NCI anticancer screen, dose series, 48 h
BT-549 = test system: BT-549
CCRF-CEM = test system: CCRF-CEM
HCT-116 = test system: HCT-116
HT-29 = test system: HT-29
IGROV-1 = test system: IGROV-1
M14 = test system: M14
MCF7 = test system: MCF7
MDA-N = test system: MDA-N
MOLT-4 = test system: MOLT-4
NCI-H522 = test system: NCI-H522
NCI/ADR-RES = test system: NCI/ADR-RES
OVCAR-3 = test system: OVCAR-3
SK-MEL-2 = test system: SK-MEL-2
SN12C = test system: SN12C
SNB-75 = test system: SNB-75
TK-10 = test system: TK-10
U-251 = test system: U-251
UACC-62 = test system: UACC-62
CAKI-1 = test system: CAKI-1

Measured: GI50

Cc1nc(Cc2n[nH]c(C)n2)n[nH]1
inactive: BT-549 > 100 µM | CCRF-CEM > 100 µM | HCT-116 > 100 µM | HT-29 > 100 µM | IGROV-1 > 100 µM | M14 > 100 µM | MCF7 > 100 µM | MDA-N > 100 µM | MOLT-4 > 100 µM | NCI-H522 > 100 µM | NCI/ADR-RES > 100 µM | OVCAR-3 > 100 µM | SK-MEL-2 > 100 µM | SN12C > 100 µM | SNB-75 > 100 µM | TK-10 > 100 µM | U-251 > 100 µM | UACC-62 > 100 µM

CN1C(=O)C(c2c[nH]c3ccccc23)N(C)C(=O)C1c1c[nH]c2ccccc12 (centres undefined)
inactive: BT-549 > 100 µM | CAKI-1 > 100 µM | CCRF-CEM > 100 µM | HCT-116 > 100 µM | HT-29 > 100 µM | IGROV-1 > 100 µM | M14 > 100 µM | MCF7 > 100 µM | MDA-N > 100 µM | MOLT-4 > 100 µM | NCI-H522 > 100 µM | NCI/ADR-RES > 100 µM | OVCAR-3 > 100 µM | SN12C > 100 µM | SNB-75 33.8 µM | TK-10 > 100 µM | U-251 > 100 µM | UACC-62 > 100 µM

C[n+]1ccccc1/C=C/c1ccc2c(c1)OCO2
inactive: BT-549 > 10 µM | CAKI-1 > 10 µM | CCRF-CEM > 10 µM | HCT-116 > 10 µM | HT-29 > 10 µM | IGROV-1 > 10 µM | M14 > 10 µM | MCF7 > 10 µM | MDA-N > 10 µM | MOLT-4 > 10 µM | NCI-H522 > 10 µM | NCI/ADR-RES > 10 µM | OVCAR-3 > 10 µM | SK-MEL-2 > 10 µM | SN12C > 10 µM | TK-10 > 10 µM | U-251 > 10 µM | UACC-62 > 10 µM

O=[N+]([O-])c1ccc2nc(O)n[n+]([O-])c2c1
inactive: BT-549 > 100 µM | CCRF-CEM > 100 µM | HCT-116 > 100 µM | HT-29 > 100 µM | IGROV-1 > 100 µM | M14 > 100 µM | MCF7 > 100 µM | MDA-N > 100 µM | MOLT-4 > 100 µM | NCI-H522 > 100 µM | NCI/ADR-RES > 100 µM | OVCAR-3 > 100 µM | SK-MEL-2 > 100 µM | SN12C > 100 µM | SNB-75 > 100 µM | TK-10 > 100 µM | U-251 > 100 µM | UACC-62 > 100 µM

CC[C@H](C)[C@H](NC(=O)[C@@]1(O)[C@H](O)[C@]2(CC)C=CCN3CC[C@@]4(c5cc(Br)c(OC)cc5N(C)[C@@H]14)[C@@H]32)C(=O)OC
inactive: BT-549 88.5 µM | CAKI-1 22.5 µM | CCRF-CEM 27.8 µM | HCT-116 25.5 µM | HT-29 11.6 µM | IGROV-1 26.3 µM | M14 22.1 µM | MCF7 35.6 µM | MDA-N 25.6 µM | MOLT-4 22.8 µM | NCI-H522 27.5 µM | NCI/ADR-RES 57.8 µM | OVCAR-3 20.7 µM | SK-MEL-2 26.2 µM | SN12C 27.2 µM | TK-10 38.3 µM | U-251 27.8 µM | UACC-62 12.6 µM

N#CCOc1cccc(C2(N3CC=CCC3)CCCCC2)c1
inactive: BT-549 > 100 µM | CAKI-1 > 100 µM | CCRF-CEM 42.3 µM | HCT-116 > 100 µM | HT-29 > 100 µM | IGROV-1 > 100 µM | M14 > 100 µM | MCF7 > 100 µM | MDA-N > 100 µM | MOLT-4 56.6 µM | NCI-H522 57.8 µM | NCI/ADR-RES > 100 µM | OVCAR-3 > 100 µM | SK-MEL-2 > 100 µM | SN12C > 100 µM | TK-10 > 100 µM | U-251 > 100 µM | UACC-62 > 100 µM

FC(F)(Sc1ccccn1)c1nc2ccccc2o1
inactive: BT-549 64.1 µM | CAKI-1 > 100 µM | CCRF-CEM 65.2 µM | HCT-116 62.2 µM | HT-29 > 100 µM | IGROV-1 > 100 µM | M14 > 100 µM | MCF7 55.2 µM | MDA-N > 100 µM | MOLT-4 > 100 µM | NCI-H522 > 100 µM | NCI/ADR-RES 85.3 µM | OVCAR-3 61.4 µM | SK-MEL-2 > 100 µM | SN12C > 100 µM | TK-10 > 100 µM | U-251 38.6 µM | UACC-62 > 100 µM

COC(=O)C1C(=O)C=CN([C@H](C)c2ccccc2)[C@@H]1Cc1ccc(OC)c(OCc2ccccc2)c1I (some centres undefined)
inactive: BT-549 18.3 µM | CAKI-1 22 µM | CCRF-CEM 24.5 µM | HCT-116 11.7 µM | HT-29 10 µM | IGROV-1 10.2 µM | M14 14.5 µM | MCF7 17.6 µM | MDA-N 15.6 µM | MOLT-4 8.79 µM | NCI-H522 13.6 µM | NCI/ADR-RES 11.1 µM | OVCAR-3 14.6 µM | SK-MEL-2 18.9 µM | SN12C 14.3 µM | TK-10 23.7 µM | U-251 17.5 µM | UACC-62 12.3 µM
